How the values were obtained:
[1] = system: P. aeruginosa; experiment: Neutropenic thigh infection model (CD-1 mice), exposure response of ceftazidime q2h and avibactam; assay type: in vivo, Pseudomonas aeruginosa; details: ceftazidime monotherapy q2h
Procedure: CD-1 neutropenic mice were infected with appr. 10^6 cfu β-lactamase-producing P. aeruginosa strains in the thigh.
Outbred female CD-1 mice (Charles River, Netherlands), 4 to 5 weeks old, weighing 20 to 25 g were used in the experiments. Granulocytopenia was induced by two doses of cyclophosphamide s.c.: one at four days (150 mg/kg) and the other at one day (100 mg/kg) before the infection experiment.
The neutropenic mice were infected with 2 P. aeruginosa strains per animal, one in the left and one in the right thigh. 0.05 mL of bacterial suspension consisting of approximately 10^5-10^6 bacteria was inoculated intramuscularly. […] All dosing regimens were performed in at least two animals. At t=0 h, 2 mice were humanely sacrificed to determine the initial inoculum just before treatment. All other animals were sacrificed at t=24 h unless the welfare of the animals indicated earlier termination was necessary, following animal welfare regulations. Thighs were taken and moved to a pre-cooled 10-mL plastic tube (Transport Tube, Omnilabo, NL) ? containing 2 mL phosphate buffered saline (PBS; NaCl 8.00 g/L, Na2HPO42H2 1.44 g/L, KH2PO4 0.26 g/L, pH 7.2-7.4). Subsequently thighs were ground using an Ultra-Turrax (IKA Labortechnik, Germany). A tenfold dilution series was prepared and 3×10 μL plated (Chromagar, Biomerieux, NL) per dilution. The following day, colonies were counted and the number of cfu per thigh calculated. The drug effect was then determined as the difference between the log10[cfu/thigh] values at t=24 h and t=0 h (mean value of 2 mice) expressed as “dcfu”.
The amount of avibactam administered varied in frequency and dose. […] The drug effect was determined as the difference between the log10 [cfu/thigh] values at t=24 h and t=0 h (mean value of 2 mice) expressed as dcfu. Free drug concentrations were used in all calculations. […] Oral presentation at the ? 52nd Interscience Conference on Antimicrobial Agents and Chemotherapy, San Francisco, Calif. Abstract #A-1760).

[2] = system: K. pneumoniae; experiment: MIC, CLSI broth microdilution in CAMHB with 0-10% pulmonary surfactant (avibactam fixed at 4 μg/mL in combination); assay type: cell-based; details: Klebsiella pneumoniae
Procedure: (§1) The bacterial strains used in this testing were part of the microbiological culture collection housed at AstraZeneca R&D Boston (AstraZeneca Research Collection, designated ARC). The panel of bacterial isolates used for this testing was comprised of five CLSI QC reference strains and the remainder were either recent clinical isolates expressing β-lactamases or isolates from the primary bacterial screening panels.
(§2) MIC values were determined using the CLSI broth microdilution methodology with slight variation. Stock compound mother plates were prepared and used to spot 2 μL aliquots of serial 2-fold drug dilutions to columns 1-11 of 96-well daughter plates using a Perkin-Elmer MiniTrak™ MultiPosition dispenser. […] An inoculum volume of 100 μL (5×10E^5 CFU/mL) in CAMHB containing 0, 1, 2.5, 5, or 10% pulmonary surfactant was added using a multichannel Finnpipette® to each well of the 96-well plate.
(§3) The minimum inhibitory concentration (MIC) values against each organism/drug combination were determined using broth microdilution methodology according to CLSI guidelines. The recommended reference bacterial strains for each test group and reference compounds were incorporated into each test. For Gram-negatives, the reference bacterial strains were Escherichia coli ATCC 25922, E. coli ATCC 35218, Klebsiella pneumoniae ATCC 700603, and Pseudomonas aeruginosa ATCC 27853. Staphylococcus aureus ATCC 29213 was the reference bacterial strain for the Gram-positives.
(§4) MIC values for individual isolates were read visually. The MICs for each compound or combination in pulmonary surfactant was compared to the compound or combination tested in CAMHB alone.

[3] = system: E. coli; experiment: as above; assay type: cell-based; details: Escherichia coli
Procedure: as §1, §2, §3, §4

## CC(C)(O/N=C(\C(=O)N[C@@H]1C(=O)N2C(C(=O)[O-])=C(C[n+]3ccccc3)CS[C@H]12)c1csc(N)n1)C(=O)O [ceftazidime, (6R,7R)-7-[[(2Z)-2-(2-amino-1,3-thiazol-4-yl)-2-(1-hydroxy-2-methyl-1-oxopropan-2-yl)oxyiminoacetyl]amino]-8-oxo-3-(pyridin-1-ium-1-ylmethyl)-5-thia-1-azabicyclo[4.2.0]oct-2-ene-2-carboxylate pentahydrate]
[1]; isolate no. 1
  static % fT > MIC (CAZ): no effect
[1]; isolate no. 3
  static % fT > MIC (CAZ): 0%
[1]; isolate no. 5
  static % fT > MIC (CAZ): 3%
[1]; isolate no. 7
  static % fT > MIC (CAZ): 7.2%
[1]; isolate no. 11
  static % fT > MIC (CAZ): no effect
[1]; isolate no. 18
  static % fT > MIC (CAZ): 9%
[1]; isolate no. 19
  static % fT > MIC (CAZ): 38%
[2]; ATCC700603, K. pneumoniae ARC561 (ATCC 700603; SHV-18, OXA-2, OKP-6), surfactant 0%
  MIC: 32 µg/mL
[2]; ATCC700603, K. pneumoniae ARC561 (ATCC 700603; SHV-18, OXA-2, OKP-6), surfactant 1%
  MIC: 32 µg/mL
[2]; ATCC700603, K. pneumoniae ARC561 (ATCC 700603; SHV-18, OXA-2, OKP-6), surfactant 2.5%
  MIC: 32 µg/mL
[2]; ATCC700603, K. pneumoniae ARC561 (ATCC 700603; SHV-18, OXA-2, OKP-6), surfactant 5%
  MIC: 32 µg/mL
[2]; ATCC700603, K. pneumoniae ARC561 (ATCC 700603; SHV-18, OXA-2, OKP-6), surfactant 10%
  MIC: 32 µg/mL
[2]; K. pneumoniae ARC1865 (Primary Screening Panel), surfactant 1%
  MIC: 0.25 µg/mL
[2]; K. pneumoniae ARC1865 (Primary Screening Panel), surfactant 2.5%
  MIC: 0.5 µg/mL
[2]; K. pneumoniae ARC1865 (Primary Screening Panel), surfactant 5%
  MIC: 0.5 µg/mL
[2]; K. pneumoniae ARC1865 (Primary Screening Panel), surfactant 10%
  MIC: 0.5 µg/mL
[2]; K. pneumoniae ARC1865 (Primary Screening Panel), surfactant concentration cell empty
  MIC: 0.5 µg/mL
[2]; K. pneumoniae ARC2528 (Clinical isolate), surfactant 0%
  MIC: 1 µg/mL
[2]; K. pneumoniae ARC2528 (Clinical isolate), surfactant 1%
  MIC: 2 µg/mL
[2]; K. pneumoniae ARC2528 (Clinical isolate), surfactant 2.5%
  MIC: 1 µg/mL
[2]; K. pneumoniae ARC2528 (Clinical isolate), surfactant 5%
  MIC: 1 µg/mL
[2]; K. pneumoniae ARC2528 (Clinical isolate), surfactant 10%
  MIC: 1 µg/mL
[2]; K. pneumoniae ARC2929 (KPC-3), surfactant 0%
  MIC: > 64 µg/mL
[2]; K. pneumoniae ARC2929 (KPC-3), surfactant 1%
  MIC: > 64 µg/mL
[2]; K. pneumoniae ARC2929 (KPC-3), surfactant 2.5%
  MIC: > 64 µg/mL
[2]; K. pneumoniae ARC2929 (KPC-3), surfactant 5%
  MIC: > 64 µg/mL
[2]; K. pneumoniae ARC2929 (KPC-3), surfactant 10%
  MIC: > 64 µg/mL
[2]; K. pneumoniae ARC2945 (KPC-2, SHV-11, TEM-1, OXA-9), surfactant 0%
  MIC: 64 µg/mL
[2]; K. pneumoniae ARC2945 (KPC-2, SHV-11, TEM-1, OXA-9), surfactant 1%
  MIC: 64 µg/mL
[2]; K. pneumoniae ARC2945 (KPC-2, SHV-11, TEM-1, OXA-9), surfactant 2.5%
  MIC: 64 µg/mL
[2]; K. pneumoniae ARC2945 (KPC-2, SHV-11, TEM-1, OXA-9), surfactant 5%
  MIC: 64 µg/mL
[2]; K. pneumoniae ARC2945 (KPC-2, SHV-11, TEM-1, OXA-9), surfactant 10%
  MIC: 64 µg/mL
[2]; K. pneumoniae ARC3713 (CTX-M-15, OXA-1/30, SHV-5, TEM-1), surfactant 0%
  MIC: > 64 µg/mL
[2]; K. pneumoniae ARC3713 (CTX-M-15, OXA-1/30, SHV-5, TEM-1), surfactant 1%
  MIC: > 64 µg/mL
[2]; K. pneumoniae ARC3713 (CTX-M-15, OXA-1/30, SHV-5, TEM-1), surfactant 2.5%
  MIC: > 64 µg/mL
[2]; K. pneumoniae ARC3713 (CTX-M-15, OXA-1/30, SHV-5, TEM-1), surfactant 5%
  MIC: > 64 µg/mL
[2]; K. pneumoniae ARC3713 (CTX-M-15, OXA-1/30, SHV-5, TEM-1), surfactant 10%
  MIC: > 64 µg/mL
[3]; ATCC25922, E. coli ARC4 (CLSI QC strain, ATCC 25922), surfactant 0%
  MIC: 0.25 µg/mL
[3]; ATCC25922, E. coli ARC4 (CLSI QC strain, ATCC 25922), surfactant 1%
  MIC: 0.25 µg/mL
[3]; ATCC25922, E. coli ARC4 (CLSI QC strain, ATCC 25922), surfactant 2.5%
  MIC: 0.25 µg/mL
[3]; ATCC25922, E. coli ARC4 (CLSI QC strain, ATCC 25922), surfactant 5%
  MIC: 0.25 µg/mL
[3]; ATCC25922, E. coli ARC4 (CLSI QC strain, ATCC 25922), surfactant 10%
  MIC: 0.25 µg/mL
[3]; ATCC35218, E. coli ARC016 (ATCC 35218, TEM-1), surfactant 0%
  MIC: 0.12 µg/mL
[3]; ATCC35218, E. coli ARC016 (ATCC 35218, TEM-1), surfactant 1%
  MIC: 0.12 µg/mL
[3]; ATCC35218, E. coli ARC016 (ATCC 35218, TEM-1), surfactant 2.5%
  MIC: 0.12 µg/mL
[3]; ATCC35218, E. coli ARC016 (ATCC 35218, TEM-1), surfactant 5%
  MIC: 0.12 µg/mL
[3]; ATCC35218, E. coli ARC016 (ATCC 35218, TEM-1), surfactant 10%
  MIC: 0.12 µg/mL
[3]; E. coli ARC523 (W3110), surfactant 0%
  MIC: 0.5 µg/mL
[3]; E. coli ARC523 (W3110), surfactant 1%
  MIC: 0.5 µg/mL
[3]; E. coli ARC523 (W3110), surfactant 2.5%
  MIC: 0.25 µg/mL
[3]; E. coli ARC523 (W3110), surfactant 5%
  MIC: 0.5 µg/mL
[3]; E. coli ARC523 (W3110), surfactant 10%
  MIC: 0.5 µg/mL
[3]; E. coli ARC3666 (CTX-M-15, OXA-1/30, SHV-31, TEM-1), surfactant 0%
  MIC: 32 µg/mL
[3]; E. coli ARC3666 (CTX-M-15, OXA-1/30, SHV-31, TEM-1), surfactant 1%
  MIC: 32 µg/mL
[3]; E. coli ARC3666 (CTX-M-15, OXA-1/30, SHV-31, TEM-1), surfactant 2.5%
  MIC: 32 µg/mL
[3]; E. coli ARC3666 (CTX-M-15, OXA-1/30, SHV-31, TEM-1), surfactant 5%
  MIC: 32 µg/mL
[3]; E. coli ARC3666 (CTX-M-15, OXA-1/30, SHV-31, TEM-1), surfactant 10%
  MIC: 32 µg/mL
[3]; E. coli ARC3690 (CTX-M-15, SHV-12), surfactant 0%
  MIC: 64 µg/mL
[3]; E. coli ARC3690 (CTX-M-15, SHV-12), surfactant 1%
  MIC: 64 µg/mL
[3]; E. coli ARC3690 (CTX-M-15, SHV-12), surfactant 2.5%
  MIC: 64 µg/mL
[3]; E. coli ARC3690 (CTX-M-15, SHV-12), surfactant 5%
  MIC: 64 µg/mL
[3]; E. coli ARC3690 (CTX-M-15, SHV-12), surfactant 10%
  MIC: 64 µg/mL

Reference: patent publication US20150374673A1, “Combination Therapy for the Treatment of Nosocomial Pneumonia” (priority 2013, published 2015)
